Data reported in patent publication US20060069084A1, “Methods of inhibiting kinases” (priority 2001, published 2006).

Legend:
JAK1 = target: T1, JAK1 (Homo sapiens, UniProt P23458); experiment: JAK1 kinase domain capture-based ELISA kinase assay; format: biochemical; conditions: Table 3; inhibit 50% of activity at 50 μM
T1 construct: The kinase domain of humanJAK1 was amplified from U937mRNA; His tag (from pFastBac HTb vector; nickel chelate purification) (N); made in house; host or cells: baculovirus; virus made in Sf9, large-scale expression in High Five insect cells
Summary of the method: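 His-tagged human JAK1 kinase domain was expressed via baculovirus in High Five insect cells and purified on nickel chelate resin. Phosphotyrosine was quantified by ELISA with peroxidase-linked PY20 after capture on avidin plates.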

JAK2 = target: T2, JAK2 (Homo sapiens, UniProt O60674); experiment: JAK2 kinase domain capture-based ELISA kinase assay; format: biochemical; conditions: Table 3; inhibit 50% of activity at 50 μM
T2 construct: The kinase domain of humanJAK2 was amplified from U937mRNA; His tag (from pFastBac HTc vector; nickel chelate purification) (N); made in house; host or cells: baculovirus; virus made in Sf9, large-scale expression in High Five insect cells
Summary of the method: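 His-tagged human JAK2 kinase domain was baculovirus-expressed in High Five insect cells and nickel-purified. Phosphotyrosine was captured on avidin plates and detected by ELISA with peroxidase-linked PY20.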

JAK3 = target: T3, JAK3 (Homo sapiens, UniProt P52333); experiment: JAK3 kinase domain capture-based ELISA kinase assay; format: biochemical; conditions: Table 3; inhibit 50% of activity at 50 μM
T3 construct: The kinase domain of humanJAK3 was amplified from U937mRNA; His tag (from pFastBac HTb vector; nickel chelate purification) (N); made in house; host or cells: baculovirus; virus made in Sf9, large-scale expression in High Five insect cells
Summary of the method: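 The human JAK3 kinase domain was His-tagged, baculovirus-expressed in High Five cells and nickel-affinity purified. Tyrosine phosphorylation was quantified on avidin-coated ELISA plates with peroxidase-linked anti-phosphotyrosine antibody PY20.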

TYK2 = target: T4, TYK2 (Homo sapiens, UniProt P29597); experiment: TYK2 kinase domain capture-based ELISA kinase assay; format: biochemical; conditions: Table 3; inhibit 50% of activity at 50 μM
T4 construct: The kinase domain of humanTYK2 was amplified from A549 mRNA; His tag (from pBlueBacHis2A vector; nickel chelate purification) (N); made in house; host or cells: baculovirus; virus made in Sf9, large-scale expression in High Five insect cells
T4 sequence (P29597 897-1176 limits assumed): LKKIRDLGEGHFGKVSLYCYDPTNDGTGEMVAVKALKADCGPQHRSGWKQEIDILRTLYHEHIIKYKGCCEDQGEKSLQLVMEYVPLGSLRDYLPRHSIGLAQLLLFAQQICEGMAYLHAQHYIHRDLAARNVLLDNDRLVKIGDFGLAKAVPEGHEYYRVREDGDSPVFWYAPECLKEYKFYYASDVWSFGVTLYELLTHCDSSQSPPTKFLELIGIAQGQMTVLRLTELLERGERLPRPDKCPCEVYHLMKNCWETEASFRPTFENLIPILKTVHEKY
Summary of the method: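 His-tagged human TYK2 kinase domain expressed in baculovirus-infected insect cells and Ni-affinity purified. Biotinylated peptide substrate (5 μM final); phosphotyrosine captured on avidin plate and detected by peroxidase-linked PY20 antibody ELISA.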

T-cell activation = T-cell activation cellular assay (MTT); format: cell-based; conditions: Table 4, 40 hr incubation
Experimental: (§1) Cellular assays were performed as follows:
(§2) Cell suspensions were prepared by harvesting cells from culture. Cell used in this test should be in later log phase growth and high viability. Cells were diluted in correct growth medium to 1.1× final concentration (from 50000 cell/ml to 200,000 cell/ml, depending on cell line). 90 μL was added to samples, diluted in PBS to 10× final concentration in flat-bottom 96-well plates (10 μL). After incubation for 40 hr in 37° C. 5% CO2 incubator, MTT 5 mg/ml (in PBS, filter sterile) 20 μl per well was added. The plates were returned to incubator for another 6 hours. Lysis Buffer (10% SDS, 0.01N HCl) 100 μl per well was added and the plate put back in incubator overnight. The plate was then read at 590 nm.

Jurkat = Jurkat cellular growth assay (MTT); format: cell-based; conditions: Table 4, inhibit 50% of cellular growth, 40 hr incubation
Experimental: as §1, §2

TSU = TSU cellular growth assay (MTT); format: cell-based; conditions: Table 4, inhibit 50% of cellular growth, 40 hr incubation
Experimental: as §1, §2

T1 sequence (P23458 875-1153 limits assumed): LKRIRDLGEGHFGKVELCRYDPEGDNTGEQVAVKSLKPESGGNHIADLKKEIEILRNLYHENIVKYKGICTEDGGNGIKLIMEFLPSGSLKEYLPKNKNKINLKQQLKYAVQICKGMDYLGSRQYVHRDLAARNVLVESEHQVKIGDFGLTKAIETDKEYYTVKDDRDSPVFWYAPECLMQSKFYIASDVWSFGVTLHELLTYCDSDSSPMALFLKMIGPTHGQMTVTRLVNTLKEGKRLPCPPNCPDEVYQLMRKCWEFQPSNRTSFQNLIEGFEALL
T3 sequence (P52333 822-1111 limits assumed): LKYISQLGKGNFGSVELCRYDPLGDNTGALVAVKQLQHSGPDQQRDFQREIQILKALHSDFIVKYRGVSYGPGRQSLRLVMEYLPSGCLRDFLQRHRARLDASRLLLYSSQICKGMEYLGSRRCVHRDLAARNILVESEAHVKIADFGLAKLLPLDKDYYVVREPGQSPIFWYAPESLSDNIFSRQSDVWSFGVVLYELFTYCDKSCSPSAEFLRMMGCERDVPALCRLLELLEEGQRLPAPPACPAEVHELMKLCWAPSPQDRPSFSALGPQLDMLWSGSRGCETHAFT
T2 sequence (O60674 849-1124 limits assumed): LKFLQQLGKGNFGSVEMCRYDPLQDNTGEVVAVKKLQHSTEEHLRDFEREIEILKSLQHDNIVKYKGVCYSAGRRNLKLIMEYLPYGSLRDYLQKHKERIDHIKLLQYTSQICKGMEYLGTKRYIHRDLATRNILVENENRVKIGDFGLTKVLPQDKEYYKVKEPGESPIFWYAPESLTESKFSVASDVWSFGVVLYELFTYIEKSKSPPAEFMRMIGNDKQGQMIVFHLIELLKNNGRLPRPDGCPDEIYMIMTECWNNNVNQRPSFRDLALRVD

| IC50 (JAK1) [µM] | IC50 (JAK2) [µM] | IC50 (JAK3) [µM] | IC50 (TYK2) [µM] | IC50 (Jurkat; Homo sapiens, Jurkat, 40 h) [µM] | IC50 (Jurkat) [µM] | Structure (SMILES) | IC50 (T-cell activation; T-cell, 40 h) [µM] | IC50 (TSU) [µM] | IC50 (T-cell activation) [µM] |
| --- | --- | --- | --- | --- | --- | --- | --- | --- | --- |
| < 50 | < 50 | < 50 | < 50 | – | – | c1ccc(CNc2cncc(-c3cccnc3)n2)cc1 [CYT24803] | – | – | – |
| < 50 | < 50 | < 50 | < 50 | – | – | COc1cc(-c2cncc(NCc3ccccc3)n2)cc(OC)c1OC [CYT25209] | – | – | – |
| < 50 | < 50 | < 50 | < 50 | – | – | OCc1ccccc1-c1cncc(NCc2ccccc2)n1 [CYT25210] | – | – | – |
| < 50 | < 50 | < 50 | < 50 | – | – | COc1cc(-c2cncc(NCCO)n2)cc(OC)c1OC [CYT28608] | – | – | – |
| < 50 | < 50 | < 50 | < 50 | – | – | C[C@@H](Nc1cncc(-c2cccc(N)c2)n1)c1ccccc1 [CYT31106] | – | – | – |
| < 50 | < 50 | < 50 | < 50 | – | – | CC(=O)Nc1cccc(-c2cncc(N[C@H](C)c3ccccc3)n2)c1 [CYT32102] | – | – | – |
| < 50 | < 50 | < 50 | < 50 | – | – | COc1cc(-c2cncc(N[C@H](C)c3ccccc3)n2)cc(OC)c1OC [CYT32107] | – | – | – |
| < 50 | < 50 | < 50 | < 50 | – | – | COc1cc(-c2cncc(Nc3ccc(C#N)cc3)n2)cc(OC)c1OC [CYT32302] | – | – | – |
| < 50 | < 50 | < 50 | < 50 | – | – | Oc1ccc(-c2cncc(N3CCN(Cc4ccccn4)CC3)n2)cc1 [CYT32602] | – | – | – |
| < 50 | < 50 | < 50 | < 50 | – | – | COc1ccc(N2CCN(c3cncc(-c4ccc(CC(N)C(=O)O)cc4)n3)CC2)cc1OC (centres unmarked) [CYT34205] | – | – | – |
| < 50 | < 50 | < 50 | < 50 | – | – | CN(C)CCNC(=O)c1cccc(-c2cncc(N3CCN(c4ccccc4C#N)CC3)n2)c1 [CYT34503] | – | – | – |

The remaining lines, values behind:

| Structure (SMILES) | IC50 (JAK1) [µM] | IC50 (JAK2) [µM] | IC50 (JAK3) [µM] | IC50 (TYK2) [µM] | IC50 (Jurkat; Homo sapiens, Jurkat, 40 h) [µM] | IC50 (Jurkat) [µM] | IC50 (T-cell activation; T-cell, 40 h) [µM] | IC50 (TSU) [µM] | IC50 (T-cell activation) [µM] |
| --- | --- | --- | --- | --- | --- | --- | --- | --- | --- |
| COc1cncc(-c2cncc(NCc3ccc(F)cc3)n2)c1 [drawing 53] | – | – | – | – | 50 | – | 30 | 50 | – |
| COc1cncc(-c2cncc(N[C@@H](C)c3ccccc3)n2)c1 [drawing 54] | – | – | – | – | 50 | – | 15 | 20 | – |
| COc1cc(-c2cncc(N[C@@H](C)c3ccccc3)n2)cc(OC)c1OC [drawing 55] | – | – | – | – | – | 20 | – | 10 | 10 |
| COc1cc(-c2cncc(NCc3ccccc3)n2)cc(OC)c1OC [drawing 56] | – | – | – | – | 20 | – | 15 | 10 | – |
| COc1cc(-c2cncc(N[C@@H](C)c3ccccc3)n2)cc(OC)c1OC [drawing 57] | – | – | – | – | 35 | – | 12 | 10 | – |
| C[C@H](Nc1cncc(-c2cccc(CO)c2)n1)c1ccccc1 [drawing 58] | – | – | – | – | 20 | – | 20 | 15 | – |
| COc1cncc(-c2cncc(NCC(C)(C)CO)n2)c1 [drawing 59] | – | – | – | – | 40 | – | 15 | 40 | – |
| CC(=O)Nc1cccc(-c2cncc(NCc3cccc(Cl)c3)n2)c1 [drawing 60] | – | – | – | – | 40 | – | 30 | 5 | – |
